SMILES strings stand for the structures.

Type in all cases: in vivo, mouse
Test [1] relates to C57BL/6 mice. The experiment in a line: DSS-induced chronic colitis. The following applies: 4 cycles of 2% DSS; for colon weight/length ratio / expression of Cldn4 in colons / inflammation (serum IL-6, IL-10, TNF-α, colonic tissue MPO levels) / shortening of colons: 20 mg/kg/day; for DSS-induced chronic colitis: 20 mg/kg/day on 4th and 6th day of each cycle.
Test [2] concerns C57BL/6 mice. The experiment in a line: TNBS-induced colitis. The following applies: for H&E analysis of colon sections / TNBS-induced body weight loss / TNBS-induced colon shortening / TNBS-induced downregulation of Cldn4 in colons / colon weight to length ratio / disease activity index (DAI) score / neutrophil infiltration (myeloperoxidase (MPO) activity) / serum inflammatory markers IL-6, TNF-α, CXCL1 and IL-10: oral 20 mg/kg at 12 h intervals; for loss of body weight, single treatment / TNBS-induced colitis, single treatment: single oral treatment at 4 or 20 mg/kg; for TNBS-induced colitis, single treatment: 12 h post TNBS. Here is the method: (§1) 2,4,6-Trinitrobenzenesulfonic acid (TNBS)-induced colitis: Male C57BL/6 or Nrf2^−/− mice (6-8 week old age mice) were anesthetized with ketamine/xylazine (100 mg/12.5 mg/kg IP) mixture and administered with single dose of TNBS (2.5 mg/mice; Sigma Aldrich, USA) in 50% ethanol. After administration of TNBS, mice were held upside down for 30-60 sec to ensure proper distribution of TNBS in the colon. Control group received 50% ethanol without TNBS. Mice with TNBS were randomly divided into three groups, viz. vehicle (0.25% sodium carboxymethylcellulose (CMC)), UroA and UAS03. UroA or UAS03 was resuspended in 0.25% sodium-CMC at desired concentrations. The mice were given orally Veh or UroA or UAS03 in 100 μl at desired concentrations (4 or 20 mg/kg/body weight). The treatment started after 12 hours of TNBS administration and every 12 hours thereafter up to 72 hours. The experiment was terminated post 60 h TNBS, where AhR^−/− mice were involved. In some experiments, we treated only once at post 12 h TNBS administration. TNBS administered and control mice were euthanized for tissue and plasma collection after 80 hours of TNBS/ethanol treatment. Mice were examined for colitis phenotype.
(§2) Assessment of colitis severity and tissue collection: Mice were evaluated daily for change in body weight, stool consistency and rectal bleeding and score was given and combined to obtained disease activity index (MURTHY et al., (1993) “Treatment of dextran sulfate sodium-induced murine colitis by intracolonic cyclosporin” Dig Dis Sci, Vol. 38, pp. 1722-1734). After euthanasia, the colon was removed and flushed with PBS containing (1 mM PMSF and 0.2 mM sodium orthovanadate). Colon length and colon weight were measured and small parts of colon were excised for myeloperoxidase (MPO) activity and RNA isolation. Tissues for MPO and RNA extraction were snap frozen in liquid nitrogen and stored in −80° C. until further analysis. Tissue for histological examination was stored in 10% phosphate buffered saline formalin. Blood was collected and serum was separated by centrifugation at 3500×g for 15 min. Serum cytokines (IL-6, TNF-α; Biolegend) and chemokines (CXCL1; R&D Systems) levels were measured by ELISA according to manufacturer's instructions.
(§3) In vivo intestinal permeability assay: The gut barrier function was evaluated by in vivo intestinal permeability using FITC-Dextran (MW 4000; FD4, Sigma-Aldrich, USA) (FURUTA et al., (2001) “Hypoxia-inducible factor 1-dependent induction of intestinal trefoil factor protects barrier function during hypoxia” J Exp Med, Vol. 193, pp. 1027-1034). Briefly, mice were orally administered with FITC-dextran (60 mg/100 gm body weight). Mice were fasted for 4 h prior to euthanization. The FITC-dextran concentration in serum was determined using the standard curve of FITC-dextran in serum (excitation, 485 nm; emission, 525 nm; BMG LABTECH).
Myeloperoxidase (MPO) activity: The MPO activity in the colons was determined using the following procedure (KIM et al. (2012) “Investigating intestinal inflammation in DSS-induced model of IBD” J Vis Exp, Vol. 60, Article e3678 (6 pages)). Briefly, colon tissue was homogenized in 0.5% (w/v) hexadecyltrimethylammonium bromide (H6269; Sigma-aldrich, USA) in 50 mM PBS, pH 6.0. This homogenate underwent 3 freeze-thaw cycles and 10-15 sec sonication to obtain homogenous suspension. The supernatant from this suspension was collected after centrifiguaton at 13000×g for 20 min at 4° C. The supernatant (10 μl) was then added to 50 mM potassium phosphate buffer (pH 6.0) containing 0.167 mg/ml o-dianisidine (Sigma-Aldrich, USA) and 0.0005% H2O2(Sigma-Aldrich USA) and absorbance was taken at 450 nm (BMG, LABTECH) at 2 min interval. […]

For test [3], the system named is Nrf2^−/− mice. The experiment in a line: TNBS-induced colitis in Nrf2^−/− mice. As to conditions: 20 mg/kg every 12 h post TNBS. Here is the method:
FIG. 7: UroA/UAS03 utilize Nrf2 pathways to mitigate colitis. (A-F) Colitis was induced using TNBS in C57BL/6 (WT) and Nrf2^−/− mice (n=4-5/group 7-8 week old age). Mice were treated with Veh or UroA/UAS03 (20 mg/kg bodyweight) every 12 h post TNBS administration ending at 72 h. Representative data from two independent experiments is shown. (A) TNBS-induced colitis experimental design and treatment regimen. (B) Percent body weight loss (No TNBS− Solid black line; Veh+TNBS− Solid red line; UroA+TNBS− Solid blue line; UAS03+TNBS− Solid purple line), (C) representative colon images, (D) colon lengths, (E) gut permeability, (F) serum levels of IL-6 and TNF-α were determined. Statistical analysis was performed (unpaired t-test) using Graphpad Prism software. Error bars, ±SEM ***p<0.001; **p<0.01 *p<0.05.
as §1

Test [4] relates to C57BL/6 mice. The experiment in a line: DSS-induced acute colitis. As to conditions: oral 20 mg/kg on day 4 and 6. The method, then:
DSS-induced colitis: Acute experimental colitis in mice was induced by giving 3% (w/v) colitis grade DSS (MP Biomedicals) in drinking water for 7 days. Control animal received drinking water without DSS. All colitis group mice were randomly divided into three groups viz. vehicle treated (0.25% Na-CMC), UroA (20 mg/kg/day) and UAS03 (20 mg/kg/day) on the 4th and 6th day of DSS treatment. After 7 days, animals were put back on regular water for a period of 7 days. For chronic DSS colitis model, we used three cycles of 2.0% (w/v) DSS and each DSS cycle consisted or 7 days followed by 10 days of regular water and mice were treated with UroA (20 mg/kg/day) on every 4th and 6th day of DSS cycle.
as §2, §3

As for `Oc1ccc2c(c1)COc1cc(O)ccc1-2` [UAS03, 6H-benzo[c]chromene-3,8-diol], in test [1], the colon weight/length ratio entry is on record as “increased colon weight/length ratio”; the “expression of Cldn4 in colons” value was “enhanced the expression of Cldn4”; the “inflammation (serum IL-6, IL-10, TNF-α, colonic tissue MPO levels)” value is given as “reduced inflammation”; the shortening of colons entry was “reduced shortening of colons”. In addition, the DSS-induced chronic colitis result in test [1] is on record as “protected from DSS-induced colitis”. In addition, in test [2], the “H&E analysis of colon sections” value was “less tissue damage and inflammation scores”; the “TNBS-induced body weight loss” value is recorded as “protected”; the TNBS-induced colon shortening result is on record as “protected from TNBS-induced colon shortening”; the “TNBS-induced downregulation of Cldn4 in colons” value is “protected from TNBS-induced downregulation of Cldn4”. Also, in test [2], the “colon weight to length ratio” value is on record as “reduced weight to length ratio”; the “disease activity index (DAI) score” value is given as “reduced”; the “neutrophil infiltration (myeloperoxidase (MPO) activity)” value is “reduced neutrophil infiltration”; the “serum inflammatory markers IL-6, TNF-α, CXCL1 and IL-10” value is “reduced”. In addition, in test [2], the “loss of body weight, single treatment” value is reported as “did not reach significance” and the “TNBS-induced colitis, single treatment” value is “mitigated TNBS-induced colitis”. In test [3], the “barrier function (FITC-dextran leakage) in Nrf2^−/− mice” value is “did not enhance barrier function”; the “body weight loss and colon shortening in Nrf2^−/− mice” value is recorded as “did not appear to restore body weight loss”; the “serum IL-6 and TNF-α levels in Nrf2^−/− mice” value was “partially reduced”. Further, in test [4], the “3% DSS induced acute colitis” value is “protected from 3% DSS induced acute colitis” and the “DAI scores during disease progression” value is listed as “overall decreased DAI scores”.

Consider `O=c1oc2cc(O)ccc2c2ccc(O)cc12` [UroA, 3,8-dihydroxy-6H-dibenzo[b,d]pyran-6-one], for which, in test [1], the colon weight/length ratio entry is listed as “increased colon weight/length ratio”; the “expression of Cldn4 in colons” value was “enhanced the expression of Cldn4”; the “inflammation (serum IL-6, IL-10, TNF-α, colonic tissue MPO levels)” value was “reduced inflammation”; the shortening of colons result was “reduced shortening of colons”. The DSS-induced chronic colitis result in test [1] was “protected from DSS-induced colitis”. Besides, in test [2], the “H&E analysis of colon sections” value is “less tissue damage and inflammation scores”; the “TNBS-induced body weight loss” value was “protected”; the TNBS-induced colon shortening entry is recorded as “protected from TNBS-induced colon shortening”; the “TNBS-induced downregulation of Cldn4 in colons” value was “protected from TNBS-induced downregulation of Cldn4”. In test [2], the “colon weight to length ratio” value was “reduced weight to length ratio”; the “disease activity index (DAI) score” value was “reduced”; the “neutrophil infiltration (myeloperoxidase (MPO) activity)” value is on record as “reduced neutrophil infiltration”; the “serum inflammatory markers IL-6, TNF-α, CXCL1 and IL-10” value was “reduced”. Further, in test [2], the “loss of body weight, single treatment” value is listed as “did not reach significance” and the “TNBS-induced colitis, single treatment” value was “mitigated TNBS-induced colitis”. In test [3], the “barrier function (FITC-dextran leakage) in Nrf2^−/− mice” value was “did not enhance barrier function”; the “body weight loss and colon shortening in Nrf2^−/− mice” value is “did not appear to restore body weight loss”; the “serum IL-6 and TNF-α levels in Nrf2^−/− mice” value is on record as “partially reduced”. For the same compound, in test [4], the “3% DSS induced acute colitis” value is “protected from 3% DSS induced acute colitis” and the “DAI scores during disease progression” value is on record as “overall decreased DAI scores”.
